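Cells were grown in 96-well plates and exposed to each compound for 48 hours at five concentrations; endpoints were interpolated linearly between bracketing concentrations, or set to the highest concentration if not reached. Here, GI50 denotes the concentration required for 50% inhibition of growth. The concentration for full growth arrest is given as TGI.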
Key:
Assay in all cases: growth of human tumour cells (NCI), 48 h
NCI-H522 lung = test system: NCI-H522 lung
M14 melanoma = test system: M14 melanoma
NCI-H460 lung = test system: NCI-H460 lung
SN12C renal = test system: SN12C renal
UACC-62 melanoma = test system: UACC-62 melanoma
BT-549 breast = test system: BT-549 breast
A549 NSCLC = test system: A549 NSCLC
IGROV1 ovarian = test system: IGROV1 ovarian
SF-539 CNS = test system: SF-539 CNS
UO-31 renal = test system: UO-31 renal

SMILES | TGI (NCI-H522 lung) [µM] | TGI (M14 melanoma) [µM] | TGI (NCI-H460 lung) [µM] | TGI (SN12C renal) [µM] | TGI (UACC-62 melanoma) [µM] | TGI (BT-549 breast) [µM] | TGI (A549 NSCLC) [µM] | TGI (IGROV1 ovarian) [µM] | TGI (SF-539 CNS) [µM] | TGI (UO-31 renal) [µM] | GI50 (NCI-H522 lung) [µM] | GI50 (M14 melanoma) [µM] | GI50 (NCI-H460 lung) [µM] | GI50 (SN12C renal) [µM] | GI50 (UACC-62 melanoma) [µM] | GI50 (BT-549 breast) [µM] | GI50 (A549 NSCLC) [µM] | GI50 (IGROV1 ovarian) [µM] | GI50 (SF-539 CNS) [µM] | GI50 (UO-31 renal) [µM]
O=C(O)CCNCC(=O)O | > 100 | > 100 | > 100 | > 100 | > 100 | > 100 | > 100 | > 100 | > 100 | > 100 | – | – | – | – | – | – | – | – | – | –
Oc1ccc(C=Nc2ccccc2O)cc1 | > 100 | > 100 | > 100 | > 100 | > 100 | > 100 | > 100 | > 100 | > 100 | > 100 | – | – | – | – | – | – | – | – | – | –
CN[C@H]1CN(c2ccc3c(=O)c(C(=O)O)cn(-c4nccs4)c3n2)C[C@@H]1OC | 2.98 | 2.34 | 1.53 | 5.69 | 1.95 | 3.05 | 2.76 | 7.15 | 4.14 | 2.93 | 0.733 | 0.783 | 0.133 | 0.364 | 0.359 | 0.758 | 0.511 | 0.353 | 0.592 | 0.566
O=c1oc2ccc(I)cc2c(=O)n1-c1ccc(Br)cc1F | 4.85 | 4.99 | 10.6 | 5.7 | 1.17 | 2.67 | > 39.7 | 13.3 | 4.99 | 2.72 | 0.396 | 0.725 | 0.5 | 0.546 | 0.31 | 0.525 | 2.82 | 0.745 | 0.632 | 0.33
Cc1cc2nc(NCCN)n(Cc3ccc(F)c(Cl)c3)c2cc1C | 35.1 | 7.07 | 10.4 | 29.8 | 27.2 | 30.2 | 32.2 | 27.5 | 26 | 24 | 19.5 | 2.52 | 3.2 | 15.1 | 13.3 | 14.8 | 17.8 | 11.7 | 11.7 | 10.7
O=C(O)c1cc(-c2ccc3cc4c(cc3c2)OCO4)nc2ccccc12 | > 100 | > 100 | 42.7 | > 100 | > 100 | > 100 | > 100 | > 100 | > 100 | 28.1 | – | – | – | – | – | – | – | – | – | –
CCc1cccc(C(C)C)c1NC(=O)C(=O)C1C(=O)Nc2ccccc2S1=O (stereo not given) | > 100 | > 100 | > 100 | > 100 | > 100 | > 100 | > 100 | > 100 | > 100 | > 100 | – | – | – | – | – | – | – | – | – | –

— PubChem BioAssay (NCI)
